Test results published in PMC8444087 (Toxicology and Applied Pharmacology, 2021).
Bridge positions count the residues as written; N and C are the ends. Ends that are not written are not given here.

Columns and labels:
[1] = tested on: platelets; set-up: method as in Miller et al., 2009; conditions: RGD-containing ligands; ref Miller et al., 2009; cited from earlier work
[2] = biological target: T1, α1 I-domain (Homo sapiens, UniProt P56199); experiment: Protein static adhesion assay: GST-tagged α1 I-domain adhesion to GLOGEN peptide coating; type: binding; conditions: TC-I-15 200 μM, Obtustatin 20 μM, 6F1 10 μg/ml
T1 construct: GST-tagged αI-domains were tested in static adhesion assays; made in house
T1 sequence (P56199 161-360 limits assumed): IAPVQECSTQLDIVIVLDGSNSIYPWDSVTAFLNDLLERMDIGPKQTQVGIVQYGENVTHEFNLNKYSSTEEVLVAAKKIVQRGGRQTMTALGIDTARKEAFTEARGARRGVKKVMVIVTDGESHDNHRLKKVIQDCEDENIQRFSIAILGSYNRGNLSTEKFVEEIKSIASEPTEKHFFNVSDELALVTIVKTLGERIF
Procedure: Immulon 2HB 96-well plates were coated with 100 μl per well of peptides at 10 μg/ml in 0.01 M acetic acid. After 3 × 200 μl/well washes with washing buffer (1 mg/ml BSA in TBS), plates were blocked with 200 μl per well of filtered 3% BSA in TBS for 1 h at RT. αI-domains were added at 10 μg/ml in washing buffer for 1 h at RT with 5 mM MgCl2 and various concentrations of inhibitor as stated. After 3 × 200 μl/well washes with washing buffer, anti-GST detection antibody (GE Healthcare HRP conjugated anti-GST GERPN1236) were added for 1 h. Plates were washed 4× with 200 μl per well of washing buffer and bound protein was quantified using the Pierce™ TMB Substrate Kit. The colorimetric reaction was stopped with an equal volume of 1 M H2SO4 and A450 was read as above. Each condition was performed in triplicate and each experiment was repeated at least three times using different preparations of proteins. […]
Fig. 1 Inhibition of binding of recombinant αI-domains to peptide coatings. Adhesion of A, α1 I-domain to GLOGEN and B, α2 I-domain to GFOGER, was measured using anti-GST-HRP conjugated antibody as described in Materials and methods, and is shown as mean A450 ± SD. […]

[3] = biological target: T2, α11β1 (UniProt P09055+Q9UKX5); experiment: Cellular static adhesion assay: C2C12 cells expressing α11β1 on collagen peptides; type: cell-based, human α-subunit, mouse β-subunit
T2 construct: expressed in transfected cells; host or cells: C2C12 mouse myofibroblasts, stably transfected
T2 sequence (Q9UKX5 23-1188): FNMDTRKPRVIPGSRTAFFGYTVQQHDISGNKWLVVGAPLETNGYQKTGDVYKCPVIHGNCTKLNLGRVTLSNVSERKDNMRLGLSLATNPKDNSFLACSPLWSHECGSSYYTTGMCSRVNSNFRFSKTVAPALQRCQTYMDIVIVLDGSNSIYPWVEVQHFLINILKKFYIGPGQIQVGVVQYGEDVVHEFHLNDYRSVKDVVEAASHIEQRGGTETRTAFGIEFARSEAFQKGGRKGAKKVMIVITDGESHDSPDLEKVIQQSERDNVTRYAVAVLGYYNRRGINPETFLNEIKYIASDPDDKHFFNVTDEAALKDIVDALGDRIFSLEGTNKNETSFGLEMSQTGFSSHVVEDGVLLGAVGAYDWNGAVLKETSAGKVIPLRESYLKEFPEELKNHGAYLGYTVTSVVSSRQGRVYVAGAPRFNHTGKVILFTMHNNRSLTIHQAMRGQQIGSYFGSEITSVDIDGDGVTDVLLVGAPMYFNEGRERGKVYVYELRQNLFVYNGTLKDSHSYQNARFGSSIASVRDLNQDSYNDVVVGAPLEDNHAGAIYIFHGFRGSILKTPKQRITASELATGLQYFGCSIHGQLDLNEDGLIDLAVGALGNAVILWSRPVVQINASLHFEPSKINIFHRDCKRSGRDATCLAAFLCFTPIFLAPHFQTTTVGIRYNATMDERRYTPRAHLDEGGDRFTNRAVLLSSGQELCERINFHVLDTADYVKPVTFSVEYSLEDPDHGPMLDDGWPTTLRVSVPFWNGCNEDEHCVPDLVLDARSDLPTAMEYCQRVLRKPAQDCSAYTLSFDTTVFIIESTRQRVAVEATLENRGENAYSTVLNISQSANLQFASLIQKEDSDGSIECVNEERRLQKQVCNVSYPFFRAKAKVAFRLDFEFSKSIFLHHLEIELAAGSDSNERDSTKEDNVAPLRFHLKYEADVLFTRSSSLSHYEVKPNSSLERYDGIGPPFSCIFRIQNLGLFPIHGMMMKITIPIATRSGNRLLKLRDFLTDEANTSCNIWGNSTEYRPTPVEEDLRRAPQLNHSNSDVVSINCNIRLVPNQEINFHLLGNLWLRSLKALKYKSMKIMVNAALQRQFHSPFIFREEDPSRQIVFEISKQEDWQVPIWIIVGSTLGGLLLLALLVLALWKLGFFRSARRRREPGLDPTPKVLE
T2 sequence (P09055 21-798): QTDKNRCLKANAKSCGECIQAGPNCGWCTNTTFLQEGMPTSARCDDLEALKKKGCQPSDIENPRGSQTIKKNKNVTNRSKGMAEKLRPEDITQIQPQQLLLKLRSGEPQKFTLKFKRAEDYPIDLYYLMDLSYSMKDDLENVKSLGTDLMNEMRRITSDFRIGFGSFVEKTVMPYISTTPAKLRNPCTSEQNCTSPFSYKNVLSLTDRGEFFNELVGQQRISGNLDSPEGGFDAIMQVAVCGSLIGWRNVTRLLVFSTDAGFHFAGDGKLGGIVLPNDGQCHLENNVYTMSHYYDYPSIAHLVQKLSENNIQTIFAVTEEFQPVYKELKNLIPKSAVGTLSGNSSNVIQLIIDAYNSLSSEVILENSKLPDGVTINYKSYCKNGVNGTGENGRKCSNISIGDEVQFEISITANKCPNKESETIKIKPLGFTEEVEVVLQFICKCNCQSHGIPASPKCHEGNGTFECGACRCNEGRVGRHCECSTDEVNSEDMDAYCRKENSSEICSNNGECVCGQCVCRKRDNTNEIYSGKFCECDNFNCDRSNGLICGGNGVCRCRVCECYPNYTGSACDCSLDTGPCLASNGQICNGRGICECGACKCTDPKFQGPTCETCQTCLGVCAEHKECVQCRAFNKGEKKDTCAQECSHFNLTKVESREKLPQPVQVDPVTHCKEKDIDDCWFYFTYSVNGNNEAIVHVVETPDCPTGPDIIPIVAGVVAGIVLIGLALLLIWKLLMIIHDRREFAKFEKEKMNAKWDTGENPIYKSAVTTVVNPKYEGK
Procedure: (§1) C2C12s and HT1080s were grown in Lifetech DMEM/10% FBS and 1% penicillin/streptomycin. All cells were maintained under sterile conditions at 37 °C, 5% CO2. Cells were passaged using Trypsin/EDTA at 37 °C for 5 min and DMEM/10% FBS to quench the trypsin. C2C12 cells were transfected as described previously ([Tiger et al., 2001]). The C2C12-α10 clone was kindly made available by Dr. Evy Lundgren-Åkerlund, Xintela AB, Sweden.
(§2) Immulon 2HB 96-well plates were coated with 100 μl per well of peptides at 10 μg/ml in 0.01 M acetic acid overnight at 4 °C. After 3 × 200 μl/well PBS washes, plates were blocked with 200 μl/well filtered 3% BSA in PBS at RT for 1 h. Plates were washed, and 20,000 cells/well were added at room temperature (RT) for 1 h in serum-free media with 5 mM MgCl2 and varying concentrations of inhibitor. Unbound cells were washed away with 3× washes of 200 μl/well PBS. […] Cell number was quantified using 50 μl per well of the Roche cytotoxicity LDH kit. […] A490 was read in a SpectraMax 190 microplate reader (Molecular Devices). […]
(§3) PRISM 8.2.1 or later (GraphPad, San Diego, CA, USA), was used for all statistical tests. […] Inhibition curves were analysed using nonlinear regression comparing each data set with either a horizontal line model (null hypothesis, no inhibition) or three-parameter dose-response curve (inhibition occurs). […]

[4] = tested on: E318A mutation of α2β1; set-up: method as in Miller et al., 2009; conditions: ref Miller et al., 2009; cited from earlier work
[5] = biological target: T3, α10β1 (UniProt O75578+P09055); experiment: Cellular static adhesion assay: C2C12 cells expressing α10β1 on collagen peptides; type: cell-based, human α-subunit, mouse β-subunit; conditions: C2C12-α10β1, GFOGER and GLOGEN coatings
T3 construct: expressed in transfected cells; host or cells: C2C12-α10 clone (gift, Xintela AB)
T3 sequence (O75578 23-1167): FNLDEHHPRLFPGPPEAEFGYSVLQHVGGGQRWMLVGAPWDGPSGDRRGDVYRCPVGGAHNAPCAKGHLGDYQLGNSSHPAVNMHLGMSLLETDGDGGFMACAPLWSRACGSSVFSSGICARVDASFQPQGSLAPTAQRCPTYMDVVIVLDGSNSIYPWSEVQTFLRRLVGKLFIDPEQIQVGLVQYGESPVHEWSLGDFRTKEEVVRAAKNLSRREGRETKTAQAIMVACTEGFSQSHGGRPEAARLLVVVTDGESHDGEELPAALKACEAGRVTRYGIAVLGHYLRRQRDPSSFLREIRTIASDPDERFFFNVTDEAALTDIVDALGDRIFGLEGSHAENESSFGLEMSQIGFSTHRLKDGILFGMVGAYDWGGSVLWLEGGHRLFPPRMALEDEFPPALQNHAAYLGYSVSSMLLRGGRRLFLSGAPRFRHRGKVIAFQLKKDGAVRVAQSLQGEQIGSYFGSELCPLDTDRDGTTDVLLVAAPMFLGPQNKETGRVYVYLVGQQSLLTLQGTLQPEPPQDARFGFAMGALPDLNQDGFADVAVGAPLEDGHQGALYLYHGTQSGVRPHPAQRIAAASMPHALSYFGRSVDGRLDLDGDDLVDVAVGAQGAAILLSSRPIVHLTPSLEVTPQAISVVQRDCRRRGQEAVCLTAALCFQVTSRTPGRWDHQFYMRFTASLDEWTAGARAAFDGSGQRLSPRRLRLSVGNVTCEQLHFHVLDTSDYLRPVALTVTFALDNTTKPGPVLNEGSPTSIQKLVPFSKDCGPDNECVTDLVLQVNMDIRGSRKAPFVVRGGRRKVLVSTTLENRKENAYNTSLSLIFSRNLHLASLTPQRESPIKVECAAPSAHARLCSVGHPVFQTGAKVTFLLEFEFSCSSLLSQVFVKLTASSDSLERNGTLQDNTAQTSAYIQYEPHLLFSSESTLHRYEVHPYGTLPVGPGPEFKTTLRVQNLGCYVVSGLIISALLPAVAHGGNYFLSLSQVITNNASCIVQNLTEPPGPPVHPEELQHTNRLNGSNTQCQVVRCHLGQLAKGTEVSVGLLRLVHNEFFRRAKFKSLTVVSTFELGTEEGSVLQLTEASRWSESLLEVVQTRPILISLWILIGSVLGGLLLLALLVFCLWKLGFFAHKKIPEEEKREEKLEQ
T3 sequence (P09055 21-798): as the sequence (P09055 21-798) above
Procedure: as §1, §2, §3

[6] = biological target: T4, α2β1 (Homo sapiens, UniProt P05556+P17301); experiment: Cellular static adhesion assay: HT1080 cells (express α2β1) on GFOGER; type: cell-based; conditions: GFOGER coating, dose curve
T4 construct: endogenous in cells; host or cells: HT1080 human fibrosarcoma cells
Text: (§4) (For interpretation of the references to colour in this figure legend, the reader is referred to the web version of this article.)

[7] = tested on: melanoma; set-up: method as in Marcinkiewicz et al., 2003; Brown et al., 2008; conditions: mice; ref Marcinkiewicz et al., 2003; Brown et al., 2008; cited from earlier work
[8] = biological target: T5, α2β1 (UniProt P09055+P17301); experiment: Cellular static adhesion assay: C2C12 cells expressing α2β1 on collagen peptides; type: cell-based, human α-subunit, mouse β-subunit; conditions: C2C12-α2β1, GFOGER and GLOGEN coatings
T5 construct: expressed in transfected cells; host or cells: C2C12 mouse myofibroblasts, stably transfected
Text: as §4

[9] = tested on: Lewis lung carcinoma; set-up: method as in Marcinkiewicz et al., 2003; Brown et al., 2008; conditions: mouse Lewis lung carcinoma model; ref Marcinkiewicz et al., 2003; Brown et al., 2008; cited from earlier work
[10] = biological target: T6, α2 I-domain (Homo sapiens, UniProt P17301); experiment: Protein static adhesion assay: GST-tagged α2 I-domain adhesion to GFOGER peptide coating; type: binding; conditions: TC-I-15 200 μM, Obtustatin 20 μM
T6 construct: GST-tagged αI-domains were tested in static adhesion assays; made in house
T6 sequence (P17301 188-365 limits assumed): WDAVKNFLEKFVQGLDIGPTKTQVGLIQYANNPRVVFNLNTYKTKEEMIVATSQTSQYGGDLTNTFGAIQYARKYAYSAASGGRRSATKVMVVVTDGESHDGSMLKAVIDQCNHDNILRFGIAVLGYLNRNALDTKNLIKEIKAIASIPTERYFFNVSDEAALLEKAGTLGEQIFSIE
Procedure: Peptides contain a binding motif (such as GFOGER) flanked on either side by five GPP repeats and a GPC triplet at both the N- and C-termini. […] Peptides were dissolved at 5 mg/ml in 0.01 M acetic acid, heated to 70 °C for 5 min and allowed to cool overnight to enable triple helix folding. […]

[11] = biological target: integrin α1β1 on stably transfected C2C12 cells (human | mouse (endogenous in C2C12)) (UniProt P56199); experiment: static cell adhesion assay; inhibition by obtustatin (dose curve) of the adhesion of integrin-expressing cells to coated GFOGER; 1 h at RT, serum-free medium, 5 mM MgCl2; three-parameter dose-response fit
Chain of integrin α1β1 on stably transfected C2C12 cells (human | mouse (endogenous in C2C12)) (P56199 29-1179, chain 1 of 2): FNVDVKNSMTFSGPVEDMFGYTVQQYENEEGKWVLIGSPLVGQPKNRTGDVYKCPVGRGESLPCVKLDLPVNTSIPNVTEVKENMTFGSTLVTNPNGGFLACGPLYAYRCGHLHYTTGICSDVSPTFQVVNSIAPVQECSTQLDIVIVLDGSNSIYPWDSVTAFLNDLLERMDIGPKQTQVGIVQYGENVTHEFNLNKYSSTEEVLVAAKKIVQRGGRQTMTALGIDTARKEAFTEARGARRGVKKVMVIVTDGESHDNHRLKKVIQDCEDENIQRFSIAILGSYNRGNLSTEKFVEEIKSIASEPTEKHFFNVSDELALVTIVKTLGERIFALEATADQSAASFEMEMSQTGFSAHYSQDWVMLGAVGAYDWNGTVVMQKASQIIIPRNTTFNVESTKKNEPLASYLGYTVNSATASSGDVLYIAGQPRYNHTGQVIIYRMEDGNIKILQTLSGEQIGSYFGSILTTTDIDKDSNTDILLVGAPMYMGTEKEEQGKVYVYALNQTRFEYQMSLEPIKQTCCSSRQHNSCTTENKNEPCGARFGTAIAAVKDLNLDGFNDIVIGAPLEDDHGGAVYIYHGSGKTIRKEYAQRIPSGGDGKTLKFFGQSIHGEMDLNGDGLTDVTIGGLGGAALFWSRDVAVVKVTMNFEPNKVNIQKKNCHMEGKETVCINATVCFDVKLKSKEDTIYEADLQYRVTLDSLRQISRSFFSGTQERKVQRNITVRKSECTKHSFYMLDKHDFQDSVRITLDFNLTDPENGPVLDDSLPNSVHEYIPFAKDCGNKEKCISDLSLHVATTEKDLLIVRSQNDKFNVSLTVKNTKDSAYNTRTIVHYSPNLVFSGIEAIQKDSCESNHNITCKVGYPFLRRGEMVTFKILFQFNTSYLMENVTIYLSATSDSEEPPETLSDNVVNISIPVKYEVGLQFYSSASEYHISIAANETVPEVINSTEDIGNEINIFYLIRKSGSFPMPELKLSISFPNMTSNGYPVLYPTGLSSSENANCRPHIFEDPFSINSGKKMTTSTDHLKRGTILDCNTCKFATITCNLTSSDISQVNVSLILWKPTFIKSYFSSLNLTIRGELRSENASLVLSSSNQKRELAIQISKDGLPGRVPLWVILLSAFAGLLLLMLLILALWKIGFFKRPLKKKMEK
Chain of integrin α1β1 on stably transfected C2C12 cells (human | mouse (endogenous in C2C12)) (P09055 21-798, chain 2 of 2, further chain): as the sequence (P09055 21-798) above

[12] = biological target: integrin α1β1 on stably transfected C2C12 cells (human | mouse (endogenous in C2C12)) (UniProt P56199); experiment: static cell adhesion assay; inhibition by obtustatin (dose curve) of the adhesion of integrin-expressing cells to coated GLOGEN; 1 h at RT, serum-free medium, 5 mM MgCl2; three-parameter dose-response fit

For `CC1(C)SCN(S(=O)(=O)c2ccccc2)[C@@H]1C(=O)N[C@@H](CNC(=O)NCc1ccccc1)C(=O)O` [TC-I-15], the “Effect on adhesion of platelets to fibronectin and fibrinogen” value [1] is given as “no effect”, the “Effect on α1 I-domain adhesion to GLOGEN” value [2] is given as “unaffected” and the IC50 ([3]; C2C12-α11β1, GLOGEN coating, 5 mM MgCl2, 1 h RT, read-out: IC50, inhibition of α11β1-expressing C2C12 cell adhesion to GLOGEN) is given as 177000 nM. The “Effect on constitutively active E318A mutation of α2β1” value [4] was “no effect” and the “Inhibition of α10β1-expressing C2C12 cell adhesion (dose curve)” value [5] was “no inhibition was seen”.
For “CTTGPCCRQCKLKPAGTTCWKTSLTSHYCTGKSCDCPLYPG (disulfide 1-10, 6-29, 7-34, 19-36 (inferred)) [obtustatin]”, the “Effect on HT1080 adhesion to GFOGER” value [6] is given as “no effect”, the “Effect on melanoma growth” value [7] is given as “blocked melanoma growth” and the “Effect on α1 I-domain adhesion to GLOGEN” value [2] is given as “unaffected”. For the same compound, the “Inhibition of α11β1-expressing C2C12 cell adhesion (dose curve)” value ([3]; C2C12-α11β1, GFOGER and GLOGEN coatings) was “no inhibition was observed”, the “Inhibition of α2β1-expressing C2C12 cell adhesion (dose curve)” value [8] was “no inhibition was observed” and the “Inhibition of α10β1-expressing C2C12 cell adhesion (dose curve)” value [5] was “no inhibition was observed”. For the same compound, the “Reduction of tumour development” value [9] was 50% and the “Effect on α2 I-domain adhesion to GFOGER” value [10] was “unaffected”.
Compound obtustatin (peptide) has an IC50 [11] of 450 nM and an IC50 [12] of 960 nM.
